Like-named read-outs stand apart in the source and are kept apart here.

In data set [1] the target is T1, serine protease of the Dengue virus (DENV PR) (Dengue virus type 2, UniProt P29990).
T1 construct: the serine protease of the Dengue virus (DENV PR)
Briefly: Dengue virus protease inhibition assay. It is filed as biochemical. The conditions noted are these: 20 µM inhibitor.

A further data set concerns the target cathepsin B (Homo sapiens, UniProt P07858). Briefly: biochemical. The note with it: for inhibition at 20 µM: read-out: % inhibition of Cath. B.
Data set [2] has as its target T2, cathepsin L (Homo sapiens, UniProt P07711). Briefly: biochemical. The note with it: for inhibition at 20 µM: read-out: % inhibition of Cath. L.
Experimental: (§1) Inhibition of cathepsins and rhodesain was tested with the fluorogenic substrate Cbz-Phe-Arg-AMC as described previously [19]. First, a screening at 20 µM inhibitor concentration was performed. For compounds showing >60% inhibition at this concentration, the IC50 values were determined. […] The respective Ki values (Table 1) were determined from plots of the IC50 values against substrate concentration according to the Cheng–Prusoff relationship [46].
(§2) Enzyme assays / Rhodesain and Cathepsins
(§3) The assays were performe d as described previously [7,8] by incubating rhodesain in 190 μL
(§4) assay buffer (50 mM sodium acetate pH 5.5, 5 mM EDTA, 200 mM NaCl, 0.005% Brij) with 5 μL of an
(§5) inhibitor DMSO stoc k solution of a given concentrati on for 10 min at room te mperature. The reaction
(§6) was started by adding 5 μ L of 400 μM Z-Phe-Arg-7-amino-4-methylc umari n (Z-Phe-Arg-AMC) in
(§7) DMSO. The released AMC was excited at 380 nm and the upc oming fl uoresce nce measured at 460
(§8) nm at 25 °C over time. The final substrate concentration was 10 μM.
(§9) Quenching of the fluoresc ence of the released AMC by the inhibitors was acc ounted for as
described previously [9].
(§10) The cathepsin L assays wer e performed accordi ngly in 50 mM Tris buffer (pH 6.5, 5 mM EDTA,
(§11) 200 mM NaCl, 0.005% Brij) and 250 μM Z-Phe-Arg-AMC concentration (final conce ntration: 6.25 μM).
(§12) The cathepsin B (Calbioche m) assays were performed accordingly in 50 mM Tris buffer pH 6.5,
(§13) 5 mM EDTA, 200 mM NaCl and 0.005% Brij leading to final enzyme and substrate concentrati ons of
(§14) Final inhibitor c once ntrations ranged from 0.001 μM to 100.0 μM.
The target in data set [3] is T3, rhodesain (Trypanosoma brucei rhodesiense, UniProt Q95PM0, S297A). In words: Rhodesain inhibition, fluorogenic substrate Cbz-Phe-Arg-AMC. The note with it: for % inhibition of Rhod.: 20 µM inhibitor. In kind it is biochemical.
T3 sequence (Q95PM0 126-342 S297A): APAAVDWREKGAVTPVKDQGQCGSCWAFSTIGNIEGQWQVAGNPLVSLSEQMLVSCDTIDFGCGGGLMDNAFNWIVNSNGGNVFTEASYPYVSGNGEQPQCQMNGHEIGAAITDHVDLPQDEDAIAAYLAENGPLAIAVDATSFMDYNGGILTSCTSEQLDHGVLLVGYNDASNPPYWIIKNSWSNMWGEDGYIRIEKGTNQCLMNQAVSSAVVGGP
The next data set has as its target T4, S. aureus sortase A (Staphylococcus aureus, UniProt Q2FV99).
T4 construct: made in house
In words: biochemical. The note with it: 20 µM final inhibitor concentration.

Data set [4] has as its target T2, cathepsin L. The note with it: IC50 increases linearly with substrate concentration.
Experimental: as §1, §2, §3, §4, §5, §6, §7, §8, §9
described previously [9].
as §10, §11, §12, §13, §14
The target in data set [5] is T3, rhodesain. In words: Hydrolysis assay of ester 7 with rhodesain, LC-MS. It is filed as biochemical. The note with it: room temperature, 24 h.
The subject of data set [6] is T. b. brucei 449 cell line. In words: T. b. brucei cell survival assay (ATPlite). The note with it: Trypanosoma brucei, after 24 h, read-out: EC50 anti-trypanosomal activity. In kind it is cell-based. How it is done:
Ester 7 and acid 8 were tested for their anti-trypanosomal activity against T. brucei brucei using the ATPlite assay according to previously published procedures. […] The differences in anti-protease and anti-trypanosomal activity between the lipophilic ester 7 and the more hydrophilic acid 8 might be due to different cell permeabilities of the compounds. […]
NaCl) followed by 45 min incubation at room te mpe rature. […] 5 μL of […] Z-Phe-Arg-AMC were added to 195 μL of rhodesain-8 or rhodesai n-DMSO stock solutions and the upcoming fluorescence was measured over time to assure complete inhibition (see Figure SI1)). […]
For the dilution assay, […] of the rhodesain-8 stock solution were diluted with […] 50 mM sodiu m acetate buffer (pH 5.5 with 5 mM EDTA, 200 mM NaCl 5 mM DTT) and the recovery of the enzymatic activity was measured immediately after adding […] of 400 μM Z-Phe-Arg-AMC (see […]
90 μL HMI-9 medium containing 2500 cells/mL were distributed in 96-well microplate s (PerkinEl mer). […] 50 μL of ATPlite 1 step solution (PerkinEl mer) was added to each well of the microplate and luminesce nce measured at room temperature with an Infinite® M200 PRO plate reader (Tecan Trading AG). The measured values were plotted against the c omp ound concentrati ons top yie ld the dose-resp onse c urve. The EC50 values were calculated using GraF it version 5.013 (Erithacus Software Ltd.). […]
For orientation: ATP-based viability assays read luminescence as a measure of living cells.

The format of data set [7] is physicochemical. The note with it: 800 µM in rhodesain sample buffer pH 5.5 with 10% d6-DMSO. How it is done: The interaction of the fluorinated inhibitors 7 and 8 with rhodesain was probed via ^19F NMR spectroscopy (Figure 3). […] To probe the rhodesain-mediated turnover of 7 into 8, we recorded time-resolved ^19F NMR spectra of 7 (800 µM) in the presence of 4 µM rhodesain (Figure 3b). During the measurement, the solution became clear and a dramatic difference in the chemical shift occurred to values identical to those observed for compound 8. The reaction was subsequently analyzed by MS (see Section 2.4), which confirmed the formation of the free acid 8.
Table S1 (DP4+)-results for product 12.
Lyophilized rhode sain was reconstituted at 4 mg/mL in 50 mM Na acetate, pH 5.5, 200 mM NaCl, 5 mM EDTA. […] After the addition of the inhibit ors at a final concentrati on of 0.1 mM, samples were analyzed by LC-MS using a nanoAcquity UP LC system (Waters Corporation) coupled to a nano-ESI-Q-TOF mass spectrome ter (Synapt G2-S HDMS, Waters Corporation). […]
For 19F NMR, c ompounds 7 (800 μM) or 8 (400 μM) were dissolved in rhodesain sample buffer (50 mM NaAcetate, pH 5.5, 200 mM NaCl, 5 mM Na-EDTA, 1 mM TCEP) with 10% d6-DMSO from a 40 mM inhibitor stock in d6-DMSO. Spectra were recorded at 303 K on a Bruker Avance 3 600 MHz spectrome ter with a Prodigy TCI cryoprobe (Bruker, Karlsruhe). Because 1H and 19F are measured in the same coil, protons wer e not decoupled during 19F acquisition. […]

Data set [8] is classed as physicochemical. The conditions noted are these: assay buffer pH 5.5 without protease, 24 h, room temperature.

T1 sequence (P29990 1394-1440): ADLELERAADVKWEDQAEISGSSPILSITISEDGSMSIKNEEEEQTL
T1 sequence (P29990 1476-1653): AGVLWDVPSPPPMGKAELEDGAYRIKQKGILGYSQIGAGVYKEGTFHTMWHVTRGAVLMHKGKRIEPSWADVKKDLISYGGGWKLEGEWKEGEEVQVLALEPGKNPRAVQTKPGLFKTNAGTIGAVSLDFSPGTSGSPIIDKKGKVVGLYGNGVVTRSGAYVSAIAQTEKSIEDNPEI
T2 sequence (P07711 114-333): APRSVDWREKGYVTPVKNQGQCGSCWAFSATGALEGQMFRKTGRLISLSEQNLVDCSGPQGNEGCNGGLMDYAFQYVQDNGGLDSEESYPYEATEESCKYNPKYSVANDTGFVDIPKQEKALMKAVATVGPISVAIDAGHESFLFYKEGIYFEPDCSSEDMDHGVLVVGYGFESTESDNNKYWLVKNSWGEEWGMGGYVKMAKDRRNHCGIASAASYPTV
T4 sequence (Q2FV99 whole entry): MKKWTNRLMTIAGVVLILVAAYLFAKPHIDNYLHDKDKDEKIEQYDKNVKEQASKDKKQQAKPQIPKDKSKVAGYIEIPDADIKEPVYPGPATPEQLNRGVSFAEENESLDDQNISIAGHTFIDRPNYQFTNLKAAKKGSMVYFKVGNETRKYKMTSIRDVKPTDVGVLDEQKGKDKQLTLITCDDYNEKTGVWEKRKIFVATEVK
Experimental for cathepsin B: as §1, §2, §3, §4, §5, §6, §7, §8, §9
described previously [9].
as §10, §11, §12, §13, §14

For `CC(C)C[C@H](NC(=O)[C@H](Cc1ccccc1)NC(=O)c1ccc(Cl)nc1Cl)C(=O)OCc1ccccc1` [Compound 1], the inhibition (in general, the drop in the measured response relative to a control, in per cent) at 20 µM in data set [1] came to 19%; on cathepsin B it was 16%; at cathepsin L [2], 57%.

For the molecule `CC(C)C[C@H](NC(=O)[C@H](Cc1ccccc1)Nc1cc(Cl)ncn1)C(=O)OCc1ccccc1` [Compound 2], the inhibition at 20 µM in data set [1] is 24%; at cathepsin B, 33%; at cathepsin L [2], 56%.

With `CC(C)C[C@H](NC(=O)[C@H](Cc1ccccc1)Nc1cc(F)c([N+](=O)[O-])cc1[N+](=O)[O-])C(=O)OCc1ccccc1` [Compound 3], the inhibition at 20 µM in data set [1] came out at 28%; at cathepsin B it was 22%; on cathepsin L [2], 60%.

Turning to `CC(C)C[C@H](NC(=O)[C@H](Cc1ccccc1)NC(=O)c1cccc([N+](=O)[O-])c1F)C(=O)OCc1ccccc1` [Compound 4], the inhibition at 20 µM in [1] came out at 10%; at S. aureus sortase A it was 11%; at cathepsin B it was 20%; on cathepsin L [2], 99%. Also, the “% inhibition of Rhod.” value on rhodesain [3] was 75%. Also, the Ki – broadly, the equilibrium dissociation constant of an inhibitor or competing ligand from its target – at rhodesain [3] (read-out: Ki Rhod.) stood at 290 nM; on cathepsin L [2], 660 nM. Besides, the “inhibition mode from IC50 at different substrate concentrations” value against cathepsin L [4] is “competitive inhibition”.

`CC(C)C[C@H](NC(=O)[C@H](Cc1ccccc1)NC(=O)Nc1ccc(F)c([N+](=O)[O-])c1)C(=O)OCc1ccccc1` [Compound 5]: the inhibition at 20 µM stood at 11% in [1], 10% at cathepsin B and 8% at cathepsin L [2].

Take `CC(C)C[C@H](NC(=O)[C@H](Cc1ccccc1)NC(=O)c1cc([N+](=O)[O-])ccc1F)C(=O)OCc1ccccc1` [Compound 6]: the inhibition at 20 µM in data set [1] amounted to 12%; at cathepsin B, 21%; at cathepsin L [2], 50%.

With `CC(C)C[C@H](NC(=O)[C@H](Cc1ccccc1)Nc1cc([N+](=O)[O-])c([N+](=O)[O-])cc1F)C(=O)OCc1ccccc1` [Compound 7], the inhibition at 20 µM worked out at 31% in data set [1], 16% against S. aureus sortase A, 63% on cathepsin B and 98% on cathepsin L [2]. In addition, the “conversion of ester into free acid by catalytically active rhodesain” value at rhodesain [5] is recorded as “complete conversion”. The EC50 (commonly the concentration that produces a half-maximal response) in [6] stood at 0.0953 µM. The “% inhibition of Rhod.” value on rhodesain [3] is 45/nd %. For the same molecule, the inhibition constant Ki on cathepsin B was 4400 nM; on cathepsin L [2] it was 1600 nM. Besides, the “inhibition mode from IC50 at different substrate concentrations” value against cathepsin L [4] is given as “competitive inhibition mode”. For the same molecule, in data set [7], the solubility entry is listed as “poor solubility”. The “hydrolysis of ester by reaction buffer” value in data set [8] is “not hydrolyzed”.

For the molecule `CC(C)C[C@H](NC(=O)[C@H](Cc1ccccc1)Nc1cc([N+](=O)[O-])c([N+](=O)[O-])cc1F)C(=O)O` [Compound 8], the EC50 in [6] came out at 18.5 µM. The Ki is 4 nM at rhodesain [3], 1500 ± 290 nM on cathepsin B and 3000 ± 900 nM on cathepsin L [2]. For the same molecule, on rhodesain [3] (IC50 at 10 min vs 45 min preincubation, dilution assay), the “reversibility of rhodesain inhibition” value is “reversible inhibition”. The inhibition at 20 µM against S. aureus sortase A was found to be 0%.

The record behind these values is article PMC7145299, “New Cysteine Protease Inhibitors: Electrophilic (Het)arenes and Unexpected Prodrug Identification for the Trypanosoma Protease Rhodesain” (Molecules, 2020).
